Data from patent US20240148714A1, “Triple Negative Breast Cancer Treatment Method” (Exelixis, Inc., priority 2016, published 2024).

Experiment: Phase II study in metastatic TNBC: toxicity / adverse events
Assay type: in vivo, human
Protocol: Experimental design: In this single-arm, two-stage phase 2 study, patients with metastatic TNBC with measurable disease by RECIST and up to 3 lines of prior chemotherapy for metastatic disease received cabozantinib 60 mg daily on a 21-day cycle. Patients were restaged 6 weeks following treatment initiation and every 9 weeks thereafter. The primary endpoint was objective response rate (ORR). Predefined secondary endpoints included progression free survival (PFS) and toxicity. Here, we examined cellular biomarkers using flow cytometry in serial blood samples collected at days 0 (baseline/pre-treatment), 8, 22, 43, and 64 of cabozantinib treatment. Mixed effect models were used to evaluate the changes of biomarker levels over time from baseline to day 64. Wilcoxon signed rank test were used to evaluate whether the change of biomarker levels from baseline to day 8 were different by clinical benefit. Adjusted p-values controlling false discovery rate were used to adjust for multiple comparisons.
Study Design and Treatment: As indicated, this was a single-arm, two-stage phase II study assessing the efficacy of cabozantinib monotherapy in patients with mTNBC. Treatment consisted of oral dosing of cabozantinib at 60 mg daily over a 21-day cycle. Patients underwent radiographic restaging at 6 weeks and every 9 weeks thereafter. Patients with complete or partial RECIST responses continued to receive study treatment, whereas those with progressive disease were taken off study. Dose reductions for toxicity occurred if patients experienced grade 3 or 4 neutropenia or thrombocytopenia, or nonhematologic adverse events. From the starting dose of 60 mg daily, doses were reduced as needed to 40 and 20 mg daily. For the purposes of determining the effect of cabozantinib treatment on pain and analgesic medication use, pain was assessed by a participant-reported questionnaire, and daily analgesic medication usage was recorded. These were completed at baseline and during week 3, 6, and every 6 weeks thereafter until the date of the participant's last follow-up visit.
The primary endpoint was the activity of cabozantinib, as defined by objective response rate (ORR) in patients with mTNBC. Predefined secondary endpoints included progression-free survival (PFS), toxicity, and pain. Correlative studies included analysis of MET and phospho-MET expression in archival tumor tissue, and molecular and cellular biomarkers of cabozantinib. Cellular biomarkers were examined using flow cytometry in serial blood samples collected at days 0 (baseline/pre-treatment), 8, 22, 43, and 64 of cabozantinib treatment. Mixed effect models were used to evaluate the changes of biomarker levels over time from baseline to day 64. Wilcoxon signed rank test were used to evaluate whether the change of biomarker levels from baseline to day 8 were different by clinical benefit. Adjusted p-values controlling false discovery rate were used to adjust for multiple comparisons.

For `COc1cc2nccc(Oc3ccc(NC(=O)C4(C(=O)Nc5ccc(F)cc5)CC4)cc3)c2cc1OC` [cabozantinib], the “number of grade 3 adverse events” value (35 patients) was 15, the Anorexia (Maximum grade Mild) was 10 and the Bone pain (Maximum grade Mild) was 0. The Diarrhea (Maximum grade Mild) was 8, the Dysgeusia (Maximum grade Mild) was 5 and the Elavated lipase (Maximum grade Mild) was 0. It also gave an Elevated alanine aminotransferase (Maximum grade Mild) of 6, an Elevated aspartate aminotransferase (Maximum grade Mild) of 7 and a Fatigue (Maximum grade Mild) of 18. For the same compound, the Hypertension (Maximum grade Mild) was 6, the Hypophosphatemia (Maximum grade Mild) was 0 and the Infection (Maximum grade Mild) was 0. The Nausea (Maximum grade Mild) was 10, the Oral mucositis (Maximum grade Mild) was 11 and the PPE (Maximum grade Mild) was 3. For the same compound, the “Prolonged activated partial thromboplastin time” value (Maximum grade Mild) was 0, the Thromboembolic event (Maximum grade Mild) was 0 and the Wound dehiscence (Maximum grade Mild) was 0. The Anorexia (Maximum grade Moderate) was 2, the Bone pain (Maximum grade Moderate) was 0 and the Diarrhea (Maximum grade Moderate) was 6. It also gave a Dysgeusia (Maximum grade Moderate) of 2, an Elavated lipase (Maximum grade Moderate) of 0 and an Elevated alanine aminotransferase (Maximum grade Moderate) of 0. For the same compound, the Elevated aspartate aminotransferase (Maximum grade Moderate) was 3, the Fatigue (Maximum grade Moderate) was 9 and the Hypertension (Maximum grade Moderate) was 4. It also gave a Hypophosphatemia (Maximum grade Moderate) of 0, an Infection (Maximum grade Moderate) of 0 and a Nausea (Maximum grade Moderate) of 0. For the same compound, the Oral mucositis (Maximum grade Moderate) was 2, the PPE (Maximum grade Moderate) was 9 and the “Prolonged activated partial thromboplastin time” value (Maximum grade Moderate) was 0. The Thromboembolic event (Maximum grade Moderate) was 0, the Wound dehiscence (Maximum grade Moderate) was 0 and the Anorexia (Maximum grade Severe) was 0. For the same compound, the Bone pain (Maximum grade Severe) was 1, the Diarrhea (Maximum grade Severe) was 0 and the Dysgeusia (Maximum grade Severe) was 0. The Elavated lipase (Maximum grade Severe) was 3, the Elevated alanine aminotransferase (Maximum grade Severe) was 1 and the Elevated aspartate aminotransferase (Maximum grade Severe) was 2. The Fatigue (Maximum grade Severe) was 0, the Hypertension (Maximum grade Severe) was 2 and the Hypophosphatemia (Maximum grade Severe) was 1. It also gave an Infection (Maximum grade Severe) of 1, a Nausea (Maximum grade Severe) of 0 and an Oral mucositis (Maximum grade Severe) of 0. The PPE (Maximum grade Severe) was 1, the “Prolonged activated partial thromboplastin time” value (Maximum grade Severe) was 1 and the Thromboembolic event (Maximum grade Severe) was 1. The Wound dehiscence (Maximum grade Severe) was 1, the Anorexia (all grades) was 12 (34) Total (% of 35) and the Bone pain (all grades) was 1 (3) Total (% of 35). For the same compound, the Diarrhea (all grades) was 14 (40) Total (% of 35), the Dysgeusia (all grades) was 7 (20) Total (% of 35) and the Elavated lipase (all grades) was 3 (9) Total (% of 35). The Elevated alanine aminotransferase (all grades) was 7 (20) Total (% of 35), the Elevated aspartate aminotransferase (all grades) was 12 (34) Total (% of 35) and the Fatigue (all grades) was 27 (77) Total (% of 35). The Hypertension (all grades) was 12 (34) Total (% of 35), the Hypophosphatemia (all grades) was 1 (3) Total (% of 35) and the Infection (all grades) was 1 (3) Total (% of 35). For the same compound, the Nausea (all grades) was 10 (29) Total (% of 35), the Oral mucositis (all grades) was 13 (37) Total (% of 35) and the PPE (all grades) was 13 (37) Total (% of 35). For the same compound, the “Prolonged activated partial thromboplastin time” value (all grades) was 1 (3) Total (% of 35), the Thromboembolic event (all grades) was 1 (3) Total (% of 35) and the Wound dehiscence (all grades) was 1 (3) Total (% of 35). The Diarrhea (all grades, possibly related) was 40%, the Fatigue (all grades, possibly related) was 77% and the Oral mucositis (all grades, possibly related) was 37%. The “palmar-plantar erythrodysesthesia (PPE)” value (all grades, possibly related) was 37%, the “patients requiring dose reduction” value (from 60 mg daily) was 34% and the “dose reduction due to PPE” value (in vivo) was 4 patients. For the same compound, the “dose reduction due to other toxicities” value (in vivo) was 8 patients, the “grade 3 elevated aspartate aminotransferase” value (in vivo) was 2 n and the “grade 3 elevated lipase” value (in vivo) was 3 n. The “grade 3 hypertension” value (in vivo) was 2 n, the “grade 4 toxicities” value (in vivo) was “no grade 4 toxicities” and the “patients off treatment due to toxicity” value (in vivo) was 9%. The “patients who omitted at least one dose due to toxicity” value (in vivo) was 26 patients and the tolerability (in vivo) was “well tolerated”.
